# Assay results: ChEMBL document CHEMBL1150788, “In vitro susceptibility of Sporothrix schenckii to six antifungal agents determined using three different methods” (2007)
# Tests used:
# Format in all cases: functional
# Sporothrix schenckii [1] = assay: Antifungal activity against Sporothrix schenckii P0019 isolate from cutaneous-lymphatic sporotrichosis patient after 72 hrs by modified NCCLS M38-A method
# Sporothrix schenckii [2] = assay: Antifungal activity against Sporothrix schenckii P0019 isolate from cutaneous-lymphatic sporotrichosis patient after 72 hrs by Sensititre YeastOne method
# Sporothrix schenckii [3] = assay: Antifungal activity against Sporothrix schenckii P0019 isolate from cutaneous-lymphatic sporotrichosis patient after 72 hrs by ATB Fungus 2 method
# Sporothrix schenckii [4] = assay: Antifungal activity against Sporothrix schenckii PSSA81 isolate from cutaneous-lymphatic sporotrichosis patient after 72 hrs by Sensititre YeastOne method
# Sporothrix schenckii [5] = assay: Antifungal activity against Sporothrix schenckii PSSA81 isolate from cutaneous-lymphatic sporotrichosis patient after 72 hrs by ATB Fungus 2 method
# Sporothrix schenckii [6] = assay: Antifungal activity against Sporothrix schenckii P25013 isolate from cutaneous-lymphatic sporotrichosis patient after 72 hrs by modified NCCLS M38-A method
# Sporothrix schenckii [7] = assay: Antifungal activity against Sporothrix schenckii P25013 isolate from cutaneous-lymphatic sporotrichosis patient after 72 hrs by Sensititre YeastOne method
# Sporothrix schenckii [8] = assay: Antifungal activity against Sporothrix schenckii P25013 isolate from cutaneous-lymphatic sporotrichosis patient after 72 hrs by ATB Fungus 2 method
# Sporothrix schenckii [9] = assay: Antifungal activity against Sporothrix schenckii P20825 isolate from cutaneous-lymphatic sporotrichosis patient after 72 hrs by modified NCCLS M38-A method
# Sporothrix schenckii [10] = assay: Antifungal activity against Sporothrix schenckii P20825 isolate from cutaneous-lymphatic sporotrichosis patient after 72 hrs by Sensititre YeastOne method
# Sporothrix schenckii [11] = assay: Antifungal activity against Sporothrix schenckii P20825 isolate from cutaneous-lymphatic sporotrichosis patient after 72 hrs by ATB Fungus 2 method
# Sporothrix schenckii [12] = assay: Antifungal activity against Sporothrix schenckii P30019 isolate from cutaneous-lymphatic sporotrichosis patient after 72 hrs by ATB Fungus 2 method
# Sporothrix schenckii [13] = assay: Antifungal activity against Sporothrix schenckii P14954 isolate from cutaneous-lymphatic sporotrichosis patient after 72 hrs by modified NCCLS M38-A method
# Sporothrix schenckii [14] = assay: Antifungal activity against Sporothrix schenckii P14954 isolate from cutaneous-lymphatic sporotrichosis patient after 72 hrs by Sensititre YeastOne method
# Sporothrix schenckii [15] = assay: Antifungal activity against Sporothrix schenckii P14954 isolate from cutaneous-lymphatic sporotrichosis patient after 72 hrs by ATB Fungus 2 method
# Sporothrix schenckii [16] = assay: Antifungal activity against Sporothrix schenckii MRSS4 isolate from cutaneous-lymphatic sporotrichosis patient after 72 hrs by modified NCCLS M38-A method
# Sporothrix schenckii [17] = assay: Antifungal activity against Sporothrix schenckii MRSS4 isolate from cutaneous-lymphatic sporotrichosis patient after 72 hrs by Sensititre YeastOne method
# Sporothrix schenckii [18] = assay: Antifungal activity against Sporothrix schenckii MRSS4 isolate from cutaneous-lymphatic sporotrichosis patient after 72 hrs by ATB Fungus 2 method
# Sporothrix schenckii [19] = assay: Antifungal activity against Sporothrix schenckii P24223 isolate from cutaneous-lymphatic sporotrichosis patient after 72 hrs by modified NCCLS M38-A method
# Sporothrix schenckii [20] = assay: Antifungal activity against Sporothrix schenckii P24223 isolate from cutaneous-lymphatic sporotrichosis patient after 72 hrs by ATB Fungus 2 method
# Sporothrix schenckii [21] = assay: Antifungal activity against Sporothrix schenckii PSCC1 isolate from cutaneous-lymphatic sporotrichosis patient after 72 hrs by modified NCCLS M38-A method
# Sporothrix schenckii [22] = assay: Antifungal activity against Sporothrix schenckii PSCC1 isolate from cutaneous-lymphatic sporotrichosis patient after 72 hrs by ATB Fungus 2 method
# Sporothrix schenckii [23] = assay: Antifungal activity against Sporothrix schenckii P24255 isolate from cutaneous-lymphatic sporotrichosis patient after 72 hrs by modified NCCLS M38-A method
# Sporothrix schenckii [24] = assay: Antifungal activity against Sporothrix schenckii P24255 isolate from cutaneous-lymphatic sporotrichosis patient after 72 hrs by ATB Fungus 2 method
# Sporothrix schenckii [25] = assay: Antifungal activity against Sporothrix schenckii P10012 isolate from cutaneous-lymphatic sporotrichosis patient after 72 hrs by modified NCCLS M38-A method
# Sporothrix schenckii [26] = assay: Antifungal activity against Sporothrix schenckii P10012 isolate from cutaneous-lymphatic sporotrichosis patient after 72 hrs by Sensititre YeastOne method
# Sporothrix schenckii [27] = assay: Antifungal activity against Sporothrix schenckii P1621 isolate from cutaneous-lymphatic sporotrichosis patient after 72 hrs by modified NCCLS M38-A method
# Sporothrix schenckii [28] = assay: Antifungal activity against Sporothrix schenckii SSA29 isolate from cutaneous-lymphatic sporotrichosis patient after 72 hrs by Sensititre YeastOne method
# Sporothrix schenckii [29] = assay: Antifungal activity against Sporothrix schenckii P26187 isolate from cutaneous-lymphatic sporotrichosis patient after 72 hrs by modified NCCLS M38-A method
# Sporothrix schenckii [30] = assay: Antifungal activity against Sporothrix schenckii P26187 isolate from cutaneous-lymphatic sporotrichosis patient after 72 hrs by Sensititre YeastOne method
# Sporothrix schenckii [31] = assay: Antifungal activity against Sporothrix schenckii P26187 isolate from cutaneous-lymphatic sporotrichosis patient after 72 hrs by ATB Fungus 2 method
# Sporothrix schenckii [32] = assay: Antifungal activity against Sporothrix schenckii PGAC0016 isolate from cutaneous-lymphatic sporotrichosis patient after 72 hrs by modified NCCLS M38-A method
# Sporothrix schenckii [33] = assay: Antifungal activity against Sporothrix schenckii PGAC0016 isolate from cutaneous-lymphatic sporotrichosis patient after 72 hrs by ATB Fungus 2 method
# Sporothrix schenckii [34] = assay: Antifungal activity against Sporothrix schenckii PJRC002 isolate from cutaneous-lymphatic sporotrichosis patient after 72 hrs by Sensititre YeastOne method
# Sporothrix schenckii [35] = assay: Antifungal activity against Sporothrix schenckii P14036 isolate from cutaneous-lymphatic sporotrichosis patient after 72 hrs by modified NCCLS M38-A method
# Sporothrix schenckii [36] = assay: Antifungal activity against Sporothrix schenckii P14036 isolate from cutaneous-lymphatic sporotrichosis patient after 72 hrs by Sensititre YeastOne method
# Sporothrix schenckii [37] = assay: Antifungal activity against Sporothrix schenckii P14036 isolate from cutaneous-lymphatic sporotrichosis patient after 72 hrs by ATB Fungus 2 method
# Sporothrix schenckii [38] = assay: Antifungal activity against Sporothrix schenckii P30915 isolate from cutaneous-lymphatic sporotrichosis patient after 72 hrs by Sensititre YeastOne method
# Sporothrix schenckii [39] = assay: Antifungal activity against Sporothrix schenckii P30915 isolate from cutaneous-lymphatic sporotrichosis patient after 72 hrs by ATB Fungus 2 method
# Pichia kudriavzevii = assay: Antifungal activity against Candida krusei ATCC 6258 […] after 72 hrs by ATB Fungus 2 method; settings: ATCC 6258, 72 h
# Candida parapsilosis [40] = assay: Antifungal activity against Candida parapsilosis ATCC 22019 […] after 72 hrs by modified NCCLS M38-A method; settings: Lodderomyces parapsilosis, ATCC 22019, 72 h
# Candida parapsilosis [41] = assay: Antifungal activity against Candida parapsilosis ATCC 22019 […] after 72 hrs by ATB Fungus 2 method; settings: Lodderomyces parapsilosis, ATCC 22019, 72 h
# Sporothrix schenckii [42] = assay: Antifungal activity against Sporothrix schenckii isolate from cutaneous-lymphatic sporotrichosis patient after 72 hrs by modified NCCLS M38-A method
# Sporothrix schenckii [43] = assay: Antifungal activity against Sporothrix schenckii isolate from cutaneous-lymphatic sporotrichosis patient after 72 hrs by Sensititre YeastOne method
# Sporothrix schenckii [44] = assay: Antifungal activity against Sporothrix schenckii isolate from cutaneous-lymphatic sporotrichosis patient after 72 hrs by ATB Fungus 2 method
compound,measurement,setting,value
C[C@@H]1[C@H](O)[C@@H](C)/C=C/C=C/C=C/C=C/C=C/C=C/C=C/[C@H](O[C@@H]2O[C@H](C)[C@@H](O)[C@H](N)[C@@H]2O)C[C@@H]2O[C@](O)(C[C@@H](O)C[C@@H](O)[C@H](O)CC[C@@H](O)C[C@@H](O)CC(=O)O[C@H]1C)C[C@H](O)[C@H]2C(=O)O [AMPHOTERICIN B],MIC,Sporothrix schenckii [1],0.125 µg/mL
same,MIC,Sporothrix schenckii [2],0.25 µg/mL
same,MIC,Sporothrix schenckii [3],≤ 0.5 µg/mL
same,MIC,Sporothrix schenckii [4],0.06 µg/mL
same,MIC,Sporothrix schenckii [5],4 µg/mL
same,MIC,Sporothrix schenckii [6],> 16 µg/mL
same,MIC,Sporothrix schenckii [7],1 µg/mL
same,MIC,Sporothrix schenckii [8],1 µg/mL
same,MIC,Sporothrix schenckii [9],> 16 µg/mL
same,MIC,Sporothrix schenckii [10],1 µg/mL
same,MIC,Sporothrix schenckii [11],1 µg/mL
same,MIC,Sporothrix schenckii [12],1 µg/mL
same,MIC,Sporothrix schenckii [13],0.25 µg/mL
same,MIC,Sporothrix schenckii [14],1 µg/mL
same,MIC,Sporothrix schenckii [15],≤ 0.5 µg/mL
same,MIC,Sporothrix schenckii [16],0.06 µg/mL
same,MIC,Sporothrix schenckii [17],0.5 µg/mL
same,MIC,Sporothrix schenckii [18],4 µg/mL
same,MIC,Sporothrix schenckii [19],0.5 µg/mL
same,MIC,Sporothrix schenckii [20],≤ 0.5 µg/mL
same,MIC,Sporothrix schenckii [21],0.25 µg/mL
same,MIC,Sporothrix schenckii [22],≤ 0.5 µg/mL
same,MIC,Sporothrix schenckii [23],2 µg/mL
same,MIC,Sporothrix schenckii [24],2 µg/mL
same,MIC,Sporothrix schenckii [25],0.06 µg/mL
same,MIC,Sporothrix schenckii [26],0.25 µg/mL
same,MIC,Sporothrix schenckii [27],0.125 µg/mL
same,MIC,Sporothrix schenckii [28],0.06 µg/mL
same,MIC,Sporothrix schenckii [29],> 16 µg/mL
same,MIC,Sporothrix schenckii [30],0.5 µg/mL
same,MIC,Sporothrix schenckii [31],4 µg/mL
same,MIC,Sporothrix schenckii [32],0.25 µg/mL
same,MIC,Sporothrix schenckii [33],≤ 0.5 µg/mL
same,MIC,Sporothrix schenckii [34],1 µg/mL
same,MIC,Sporothrix schenckii [35],> 16 µg/mL
same,MIC,Sporothrix schenckii [36],0.5 µg/mL
same,MIC,Sporothrix schenckii [37],1 µg/mL
same,MIC,Sporothrix schenckii [38],0.5 µg/mL
same,MIC,Sporothrix schenckii [39],≤ 0.5 µg/mL
same,MIC,Pichia kudriavzevii,≤ 0.5 µg/mL
same,MIC,Candida parapsilosis [40],0.5 µg/mL
same,MIC,Candida parapsilosis [41],≤ 0.5 µg/mL
same,MIC50,Sporothrix schenckii [42],1 µg/mL
same,MIC90,Sporothrix schenckii [42],> 116 µg/mL
same,MIC50,Sporothrix schenckii [43],0.5 µg/mL
same,MIC90,Sporothrix schenckii [43],1 µg/mL
same,MIC50,Sporothrix schenckii [44],1 µg/mL
same,MIC90,Sporothrix schenckii [44],4 µg/mL
